# Laboratory results reported in article PMC3262907 (ACS Chemical Biology, 2011).
# How the values were obtained:
# Type in all cases: cell-based
# HT29 cells = assay: Proliferation assay; details: Homo sapiens, HT-29, 96 h, read-out: Cell EC50 HT29
# HCT116 cells = assay: Proliferation assay; details: Homo sapiens, HCT-116, 96 h, read-out: Cell EC50 HCT 116
# [1] = test system: monopolar spindle formation; assay: Spindle morphology by indirect immunofluorescence; details: cells arrested in metaphase
# HeLa S3 cells = assay: Proliferation assay; details: Homo sapiens, HeLa S3, 96 h, read-out: Cell EC50 HeLa
compound,measurement,setting,value
"CCN(CCCOc1ccc2c(Nc3cc(CC(=O)Nc4cccc(F)c4)n[nH]3)ncnc2c1)CCOP(=O)(O)O [Compound 33, AZD1152]",EC50,HT29 cells,0.239 µM
same,EC50,HCT116 cells,0.0174 µM
same,concentration up to which no significant monopolarity resulted,[1],> 500 nM
same,EC50,HeLa S3 cells,0.0038 µM
"Cc1cc(Nc2cc(N3CCN(C)CC3)nc(Sc3ccc(NC(=O)C4CC4)cc3)n2)[nH]n1 [Compound 32, VX680]",EC50,HT29 cells,0.119 µM
same,EC50,HCT116 cells,0.0158 µM
same,EC50,HeLa S3 cells,0.0164 µM
"O=C(O)c1ccc(Nc2ncc3c(n2)-c2ccc(Cl)cc2C(c2c(F)cccc2F)=NC3)cc1 [Compound 34, MLN8054]",EC50,HT29 cells,0.688 µM
same,EC50,HCT116 cells,0.0503 µM
same,EC50,HeLa S3 cells,0.214 µM
